Holding throughout (type): cell-based
The target of assay [1] is T1, human TLR8 (Homo sapiens, UniProt Q9NR97).
T1 construct: host or cells: HEK-Blue cells
T1 sequence (Q9NR97 27-1041): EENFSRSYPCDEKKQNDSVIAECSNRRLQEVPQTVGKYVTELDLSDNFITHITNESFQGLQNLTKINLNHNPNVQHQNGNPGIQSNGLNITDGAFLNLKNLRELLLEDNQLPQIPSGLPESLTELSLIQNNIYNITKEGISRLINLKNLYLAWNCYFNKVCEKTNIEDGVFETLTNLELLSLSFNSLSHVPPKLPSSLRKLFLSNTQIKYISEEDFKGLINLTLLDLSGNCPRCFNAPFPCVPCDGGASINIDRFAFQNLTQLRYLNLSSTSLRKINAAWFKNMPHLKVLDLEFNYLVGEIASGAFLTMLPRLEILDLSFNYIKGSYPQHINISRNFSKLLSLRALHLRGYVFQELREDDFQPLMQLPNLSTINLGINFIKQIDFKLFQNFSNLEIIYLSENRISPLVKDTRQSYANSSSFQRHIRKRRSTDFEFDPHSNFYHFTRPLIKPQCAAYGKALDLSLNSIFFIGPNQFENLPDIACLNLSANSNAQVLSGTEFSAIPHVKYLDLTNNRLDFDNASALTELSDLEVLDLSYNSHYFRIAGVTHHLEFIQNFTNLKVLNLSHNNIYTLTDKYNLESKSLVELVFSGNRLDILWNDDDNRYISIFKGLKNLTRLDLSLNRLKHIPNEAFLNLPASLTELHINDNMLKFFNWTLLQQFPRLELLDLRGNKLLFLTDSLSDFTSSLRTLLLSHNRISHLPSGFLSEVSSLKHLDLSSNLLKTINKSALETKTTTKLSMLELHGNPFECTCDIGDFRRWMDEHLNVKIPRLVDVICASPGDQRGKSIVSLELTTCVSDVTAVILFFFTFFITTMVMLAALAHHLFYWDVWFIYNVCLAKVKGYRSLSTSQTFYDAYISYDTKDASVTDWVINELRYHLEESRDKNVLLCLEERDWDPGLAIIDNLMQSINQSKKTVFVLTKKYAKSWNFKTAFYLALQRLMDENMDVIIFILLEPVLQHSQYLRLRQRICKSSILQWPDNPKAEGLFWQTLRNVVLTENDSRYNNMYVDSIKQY
Kind of assay: TLR8 inhibition reporter assay (HEK-Blue SEAP reporter, R848 stimulation). The settings on record: HEK-Blue cells overexpressing human TLR8, SEAP reporter, R848 15.9 μM, 22 hour incubation. The method, boiled down:
(§1)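 Agonists used: gardiquimod 7.5 μM (TLR7), R848 15.9 μM (TLR8), ODN2006 5 nM (TLR9), added after 30 min room-temperature compound pre-treatment (0.05 nM–50 μM) of receptor-overexpressing HEK-Blue cells. SEAP reporter (NF-κB/AP-1 driven) read after 22 h at 37 °C; inhibition scaled between agonist+DMSO and reference-inhibitor wells.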

The target of assay [2] is T2, human TLR9 (Homo sapiens, UniProt Q9NR96).
T2 construct: host or cells: HEK-Blue cells
T2 sequence (Q9NR96 26-1032): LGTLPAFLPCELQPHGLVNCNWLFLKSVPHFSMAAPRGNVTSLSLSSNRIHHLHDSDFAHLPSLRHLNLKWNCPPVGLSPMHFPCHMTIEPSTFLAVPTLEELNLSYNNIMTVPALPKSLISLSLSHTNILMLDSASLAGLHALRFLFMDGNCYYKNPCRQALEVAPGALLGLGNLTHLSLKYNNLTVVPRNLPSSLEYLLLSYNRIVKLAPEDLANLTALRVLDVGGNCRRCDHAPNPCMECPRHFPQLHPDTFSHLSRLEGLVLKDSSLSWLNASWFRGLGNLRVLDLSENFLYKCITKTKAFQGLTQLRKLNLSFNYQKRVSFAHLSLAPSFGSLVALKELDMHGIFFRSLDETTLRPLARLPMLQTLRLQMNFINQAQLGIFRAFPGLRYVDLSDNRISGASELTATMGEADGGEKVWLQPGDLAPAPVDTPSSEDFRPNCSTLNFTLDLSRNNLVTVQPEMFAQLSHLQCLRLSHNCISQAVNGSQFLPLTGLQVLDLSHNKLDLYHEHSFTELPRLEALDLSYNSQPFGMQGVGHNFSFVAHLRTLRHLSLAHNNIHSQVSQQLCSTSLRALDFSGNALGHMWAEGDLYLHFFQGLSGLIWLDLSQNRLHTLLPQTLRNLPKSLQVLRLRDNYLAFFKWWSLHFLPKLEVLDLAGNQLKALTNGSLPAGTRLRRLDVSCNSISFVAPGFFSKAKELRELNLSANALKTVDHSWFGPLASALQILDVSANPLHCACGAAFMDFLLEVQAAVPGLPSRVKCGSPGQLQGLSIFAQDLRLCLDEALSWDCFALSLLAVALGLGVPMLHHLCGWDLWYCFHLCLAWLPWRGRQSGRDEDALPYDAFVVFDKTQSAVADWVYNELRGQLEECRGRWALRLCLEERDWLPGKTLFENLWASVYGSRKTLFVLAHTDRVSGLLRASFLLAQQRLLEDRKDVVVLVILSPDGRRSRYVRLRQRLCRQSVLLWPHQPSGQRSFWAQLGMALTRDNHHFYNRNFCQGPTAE
Kind of assay: TLR9 inhibition reporter assay (HEK-Blue SEAP reporter, ODN2006 stimulation). Conditions: HEK-Blue cells overexpressing human TLR9, SEAP reporter, ODN2006 5 nM, 22 hour incubation. The method, boiled down: as §1

For assay [3], the target named is T3, human TLR7 (Homo sapiens, UniProt Q9NYK1).
T3 construct: host or cells: HEK-Blue cells
T3 sequence (Q9NYK1 27-1049): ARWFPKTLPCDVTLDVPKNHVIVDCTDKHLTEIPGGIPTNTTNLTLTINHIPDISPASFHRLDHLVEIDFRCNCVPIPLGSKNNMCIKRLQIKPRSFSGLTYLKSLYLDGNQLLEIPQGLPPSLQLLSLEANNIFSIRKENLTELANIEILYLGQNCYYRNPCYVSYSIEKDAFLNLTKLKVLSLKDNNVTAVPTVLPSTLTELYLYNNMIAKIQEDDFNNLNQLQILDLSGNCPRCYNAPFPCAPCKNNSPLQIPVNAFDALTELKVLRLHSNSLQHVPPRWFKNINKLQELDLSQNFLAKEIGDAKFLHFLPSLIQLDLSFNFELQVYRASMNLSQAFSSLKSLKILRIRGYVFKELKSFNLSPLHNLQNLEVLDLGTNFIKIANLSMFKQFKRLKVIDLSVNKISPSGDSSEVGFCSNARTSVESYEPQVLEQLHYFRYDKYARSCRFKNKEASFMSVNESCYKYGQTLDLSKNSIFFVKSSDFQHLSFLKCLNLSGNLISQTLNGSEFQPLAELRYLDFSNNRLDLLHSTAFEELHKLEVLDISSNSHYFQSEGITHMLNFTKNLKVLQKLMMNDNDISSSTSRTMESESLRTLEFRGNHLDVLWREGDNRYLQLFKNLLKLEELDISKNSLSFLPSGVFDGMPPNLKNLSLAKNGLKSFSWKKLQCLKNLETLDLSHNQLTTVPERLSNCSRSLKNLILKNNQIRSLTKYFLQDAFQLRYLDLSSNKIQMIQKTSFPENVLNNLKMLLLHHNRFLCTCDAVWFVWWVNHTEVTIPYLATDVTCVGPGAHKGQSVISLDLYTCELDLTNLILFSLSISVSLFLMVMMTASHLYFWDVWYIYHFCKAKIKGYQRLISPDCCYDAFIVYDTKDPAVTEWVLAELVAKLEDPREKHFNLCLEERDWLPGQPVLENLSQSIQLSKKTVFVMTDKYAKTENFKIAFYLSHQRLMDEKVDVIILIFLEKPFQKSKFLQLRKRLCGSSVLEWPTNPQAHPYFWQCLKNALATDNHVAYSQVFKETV
Kind of assay: TLR7 inhibition reporter assay (HEK-Blue SEAP reporter, gardiquimod stimulation). Conditions: HEK-Blue cells overexpressing human TLR7, SEAP reporter, gardiquimod 7.5 μM, 22 hour incubation. The method, boiled down: as §1

For the molecule `Cc1cc(-c2[nH]c3ccc(C4CCN(C5CCOCC5)CC4)cc3c2C(C)C)cn(C)c1=O` [Example 178, 5-(3-isopropyl-5-(1-(tetrahydro-2H-pyran-4-yl)piperidin-4-yl)-1H-indol-2-yl)-1,3-dimethylpyridin-2(1H)-one], the IC50 stood at 3.2 nM in assay [1], 7090 nM in assay [2] and 3.9 nM in assay [3].
The like results for `CC(C)c1c(-c2cc(Cl)c(=O)n(C)c2)[nH]c2ccc(C3CCN(C4CCOCC4)CC3)cc12` [Example 226, 3-chloro-5-(3-isopropyl-5-(1-(tetrahydro-2H-pyran-4-yl)piperidin-4-yl)-1H-indol-2-yl)-1-methylpyridin-2(1H)-one] were, in that order, 7 nM, 10400 nM and 3.8 nM.
For the molecule `Cc1cc(-c2[nH]c3ccc(C4CCN(C(C)(C)C(=O)O)CC4)cc3c2C(C)C)cn(C)c1=O` [Example 148, 2-(4-(2-(1,5-dimethyl-6-oxo-1,6-dihydropyridin-3-yl)-3-isopropyl-1H-indol-5-yl)piperidin-1-yl)-2-methylpropanoic acid], the IC50 in assay [1] was 364 nM; in assay [2] it was ≥ 50000 nM; in assay [3], 193 nM.
The like results for `Cc1cc(-c2[nH]c3ccc(C4CCN(CC(=O)N(C)C)CC4)cc3c2C(C)C)cn(CC(C)C)c1=O` [Example 163, 2-(4-(2-(1-isobutyl-5-methyl-6-oxo-1,6-dihydropyridin-3-yl)-3-isopropyl-1H-indol-5-yl)piperidin-1-yl)-N,N-dimethylacetamide] were, in that order, 118 nM, 3890 nM and 12.3 nM.
The like results for `Cc1c(-c2[nH]c3ccc(C4CCN(C5COC5)CC4)cc3c2C(C)C)cn(C)c(=O)c1Cl` [Example 248, 3-chloro-5-(3-isopropyl-5-(1-(oxetan-3-yl)piperidin-4-yl)-1H-indol-2-yl)-1,4-dimethylpyridin-2(1H)-one] were, in that order, 16.9 nM, 30000 nM and 5.6 nM.
On the same counts, the results for `CCc1cc(-c2[nH]c3ccc(C4CCNCC4)cc3c2C(C)C)cn(CC)c1=O` [Example 68, 1,3-diethyl-5-(3-isopropyl-5-(piperidin-4-yl)-1H-indol-2-yl)pyridin-2(1H)-one] are 9.8 nM, 5360 nM and 8.5 nM.
On to `CC(=O)N1CCC(c2ccc3[nH]c(-c4cn(C)c(=O)c(Cl)c4C)c(C(C)C)c3c2)CC1` [Example 241, 5-(5-(1-acetylpiperidin-4-yl)-3-isopropyl-1H-indol-2-yl)-3-chloro-1,4-dimethylpyridin-2(1H)-one], for which the IC50 came to 4.8 nM in assay [1], 4870 nM in assay [2] and 8.3 nM in assay [3].
On the same counts, the results for `COc1cc(-c2[nH]c3ccc(C4CCN(C5CCOCC5)CC4)cc3c2C(C)C)cn(C)c1=O` [Example 201, 5-(3-isopropyl-5-(1-(tetrahydro-2H-pyran-4-yl)piperidin-4-yl)-1H-indol-2-yl)-3-methoxy-1-methylpyridin-2(1H)-one] are 4.4 nM, 959 nM and 4 nM.
In the case of `Cc1c(-c2[nH]c3ccc(C4CCN(C5CCOCC5)CC4)cc3c2C(C)C)nn(C)c(=O)c1C` [Example 205, 6-(3-isopropyl-5-(1-(tetrahydro-2H-pyran-4-yl)piperidin-4-yl)-1H-indol-2-yl)-2,4,5-trimethylpyridazin-3(2H)-one], the IC50 stood at 19.8 nM in assay [1], 8710 nM in assay [2] and 501 nM in assay [3].
On to `CCn1cc(-c2[nH]c3ccc(C4CCN(C(=O)CN(C)C)CC4)cc3c2C(C)C)cc(C)c1=O` [Example 282, 5-(5-(1-(dimethylglycyl)piperidin-4-yl)-3-isopropyl-1H-indol-2-yl)-1-ethyl-3-methylpyridin-2(1H)-one], for which the values for the IC50 in assay [1], in assay [2] and in assay [3] were 7 nM, 6270 nM and 5.2 nM, respectively.
On the same counts, the results for `Cc1cc(-c2[nH]c3ccc(C4CCN(C(=O)[C@H]5NCC[C@@H]5O)CC4)cc3c2C(C)C)cn(C)c1=O` [Example 291, 5-(5-(1-((2S,3S)-3-hydroxypyrrolidine-2-carbonyl)piperidin-4-yl)-3-isopropyl-1H-indol-2-yl)-1,3-dimethylpyridin-2(1H)-one] are 11.2 nM, 1420 nM and 12.3 nM.
As for `Cc1cc(-c2[nH]c3ccc(C4CCN(Cc5cc(Cl)ccc5F)CC4)cc3c2C(C)C)cn(C)c1=O` [Example 80, 5-(5-(1-(5-chloro-2-fluorobenzyl)piperidin-4-yl)-3-isopropyl-1H-indol-2-yl)-1,3-dimethylpyridin-2(1H)-one], the IC50 worked out at 141 nM in assay [1], 48800 nM in assay [2] and 128 nM in assay [3].

The values above are taken from patent US11447466B2, “Substituted indole compounds useful as inhibitors of TLR7/8/9” (BRISTOL-MYERS SQUIBB COMPANY, priority 2017, dated 2022).
